The experiment has as its target Sodium channel protein type 9 subunit alpha (Homo sapiens, UniProt Q15858). The experiment can be described thus: Inhibition of Nav1.7 by cell-based FLIPR assay.

Sodium channel protein type 9 subunit alpha, sequence (Q15858 whole entry): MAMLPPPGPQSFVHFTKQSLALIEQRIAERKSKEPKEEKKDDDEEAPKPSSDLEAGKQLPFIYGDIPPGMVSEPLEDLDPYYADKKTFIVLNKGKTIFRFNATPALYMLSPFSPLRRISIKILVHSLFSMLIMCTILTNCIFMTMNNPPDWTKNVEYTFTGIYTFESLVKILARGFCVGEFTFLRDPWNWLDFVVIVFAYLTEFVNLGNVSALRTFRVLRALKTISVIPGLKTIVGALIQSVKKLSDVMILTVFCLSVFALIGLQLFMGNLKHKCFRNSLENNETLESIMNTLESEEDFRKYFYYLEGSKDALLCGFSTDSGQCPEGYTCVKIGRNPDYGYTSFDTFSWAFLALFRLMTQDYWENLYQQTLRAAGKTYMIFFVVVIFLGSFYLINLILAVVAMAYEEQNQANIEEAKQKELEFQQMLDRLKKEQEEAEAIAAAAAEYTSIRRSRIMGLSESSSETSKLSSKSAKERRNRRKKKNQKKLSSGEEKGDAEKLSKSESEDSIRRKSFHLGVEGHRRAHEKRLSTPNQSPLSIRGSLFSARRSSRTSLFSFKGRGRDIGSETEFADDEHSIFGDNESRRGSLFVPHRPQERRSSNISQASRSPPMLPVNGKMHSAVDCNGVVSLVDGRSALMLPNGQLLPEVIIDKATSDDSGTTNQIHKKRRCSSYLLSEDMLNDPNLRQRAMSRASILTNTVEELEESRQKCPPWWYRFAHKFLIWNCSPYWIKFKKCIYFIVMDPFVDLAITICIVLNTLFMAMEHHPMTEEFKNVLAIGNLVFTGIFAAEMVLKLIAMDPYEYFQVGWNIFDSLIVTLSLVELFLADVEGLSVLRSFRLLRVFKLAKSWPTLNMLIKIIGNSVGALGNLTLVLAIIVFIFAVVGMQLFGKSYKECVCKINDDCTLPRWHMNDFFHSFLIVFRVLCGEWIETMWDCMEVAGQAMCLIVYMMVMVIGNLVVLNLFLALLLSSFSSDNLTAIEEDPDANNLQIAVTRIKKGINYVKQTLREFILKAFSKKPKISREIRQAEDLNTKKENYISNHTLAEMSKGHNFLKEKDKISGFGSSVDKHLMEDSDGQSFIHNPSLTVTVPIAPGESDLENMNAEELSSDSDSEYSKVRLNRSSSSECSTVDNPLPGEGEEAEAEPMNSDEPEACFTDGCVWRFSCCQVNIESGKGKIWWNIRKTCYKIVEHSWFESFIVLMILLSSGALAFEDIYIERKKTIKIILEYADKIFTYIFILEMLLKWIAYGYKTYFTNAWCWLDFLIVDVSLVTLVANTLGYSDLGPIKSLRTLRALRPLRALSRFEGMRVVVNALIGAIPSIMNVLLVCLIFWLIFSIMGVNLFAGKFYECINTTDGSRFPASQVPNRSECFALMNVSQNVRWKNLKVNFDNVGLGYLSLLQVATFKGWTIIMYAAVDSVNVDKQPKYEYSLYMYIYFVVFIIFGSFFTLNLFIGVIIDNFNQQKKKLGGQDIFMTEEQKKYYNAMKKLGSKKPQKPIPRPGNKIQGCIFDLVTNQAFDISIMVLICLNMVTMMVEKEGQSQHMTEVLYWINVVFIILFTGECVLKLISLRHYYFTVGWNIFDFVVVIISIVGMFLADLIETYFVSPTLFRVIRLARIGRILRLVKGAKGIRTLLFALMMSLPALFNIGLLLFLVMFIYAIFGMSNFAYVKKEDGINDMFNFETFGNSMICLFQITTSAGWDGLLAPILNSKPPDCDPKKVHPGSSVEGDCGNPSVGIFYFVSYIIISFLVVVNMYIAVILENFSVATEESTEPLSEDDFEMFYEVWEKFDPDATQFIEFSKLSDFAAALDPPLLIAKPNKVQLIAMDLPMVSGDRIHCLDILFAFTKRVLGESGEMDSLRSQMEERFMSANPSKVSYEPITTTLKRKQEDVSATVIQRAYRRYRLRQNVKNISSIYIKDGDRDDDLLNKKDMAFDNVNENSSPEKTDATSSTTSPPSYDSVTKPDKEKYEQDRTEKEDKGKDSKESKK

The IC50 is the midpoint of a concentration-inhibition curve. Compound `c1ccc(CN2CCC3(CC2)CC3CNc2ccccc2N2CCCCC2)cc1` (stereo unspecified) registered a 50% inhibitory concentration (IC50) of 0.291 µM. For `c1ccc(CC(NCC2CC23CCN(c2ccccc2)CC3)c2ccccc2)cc1` (stereo unspecified), the IC50 turned out to be 0.177 µM. In turn, `CN(C)c1ccc(C(=O)NC2CC23CCN(c2ccccc2)CC3)c2ccccc12` (stereo unspecified) returned an IC50 of 0.0983 µM. `CN(C)c1cccc2c(C(=O)NC3CC34CCN(c3ccccc3)CC4)cccc12` (stereo unspecified) displayed an IC50 of 0.237 µM.

In the case of `O=C(NC1CC12CCN(c1ccccc1)CC2)c1ccc(F)c2ccccc12` (stereo unspecified), 0.188 µM corresponded to half-maximal inhibition (IC50). `CN(C)c1ccc(C(=O)NC2CC23CCN(c2cc(F)cc(F)c2)CC3)c2ccccc12` (stereo unspecified): the IC50 was found to be 0.151 µM.

The values above are taken from ChEMBL document CHEMBL2150862, “Cyclopropyl-spiro-piperidines Useful as Sodium Channel Blockers: Patent Highlight” (ACS Med Chem Lett, 2012).
